# Test results reported in BindingDB's records for doi:10.1021/ja058636j (Purdue University, 2006).
# What was measured:
# Assay in all cases: Enzyme Inhibition Measurements
# Details in all cases: pH 4.5; 37 °C
# Cathepsin D = Cathepsin D (Homo sapiens, UniProt P07339)
# Protocol: (§1) Enzyme activities were assayed by monitoring the hydrolysis of substrate in the presence or absence of inhibitor compounds. The hydrolysis was recorded as the increase in fluorescence intensity over a 10 min time period. […] The Ki was calculated by using Ki = IC50/ (1 + [S]/Km), and a Km value determined according to Michaelis-Menten.
# Beta-secretase 1 = Beta-secretase 1 (Homo sapiens, UniProt P56817)
# Beta-secretase 1, sequence (P56817 whole entry): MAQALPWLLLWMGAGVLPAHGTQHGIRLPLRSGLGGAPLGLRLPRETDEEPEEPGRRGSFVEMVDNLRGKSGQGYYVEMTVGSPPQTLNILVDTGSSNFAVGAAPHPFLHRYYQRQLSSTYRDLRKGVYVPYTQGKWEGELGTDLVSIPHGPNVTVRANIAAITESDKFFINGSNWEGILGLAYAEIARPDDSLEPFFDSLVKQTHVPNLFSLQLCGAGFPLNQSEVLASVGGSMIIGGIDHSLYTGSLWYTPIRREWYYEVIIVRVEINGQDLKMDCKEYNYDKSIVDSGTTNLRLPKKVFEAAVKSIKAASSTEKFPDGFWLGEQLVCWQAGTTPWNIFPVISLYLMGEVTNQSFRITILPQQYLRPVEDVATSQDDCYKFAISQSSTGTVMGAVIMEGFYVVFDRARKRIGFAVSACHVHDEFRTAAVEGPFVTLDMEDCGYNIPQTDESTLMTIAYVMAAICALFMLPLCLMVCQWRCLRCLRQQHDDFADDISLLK
# Protocol: as §1
# Beta-secretase 2 = biological target: T1, Beta-secretase 2 (Homo sapiens, UniProt Q9Y5Z0)
# T1 sequence (Q9Y5Z0 whole entry): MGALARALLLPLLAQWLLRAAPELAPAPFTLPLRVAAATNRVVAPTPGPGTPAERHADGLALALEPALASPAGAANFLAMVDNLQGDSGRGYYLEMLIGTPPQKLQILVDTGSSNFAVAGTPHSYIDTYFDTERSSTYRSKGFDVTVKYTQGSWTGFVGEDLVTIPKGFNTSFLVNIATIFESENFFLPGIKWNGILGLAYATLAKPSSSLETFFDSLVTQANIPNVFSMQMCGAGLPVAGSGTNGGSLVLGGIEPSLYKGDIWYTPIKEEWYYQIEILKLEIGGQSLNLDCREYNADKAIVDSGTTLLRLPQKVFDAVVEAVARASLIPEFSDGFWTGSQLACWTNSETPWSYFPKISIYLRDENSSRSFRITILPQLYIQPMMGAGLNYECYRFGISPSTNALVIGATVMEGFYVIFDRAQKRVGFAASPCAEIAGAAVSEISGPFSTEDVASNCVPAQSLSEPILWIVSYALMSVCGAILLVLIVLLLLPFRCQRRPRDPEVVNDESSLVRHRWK
# Protocol: as §1
# Cathepsin D, sequence (P07339 65-162 limits assumed): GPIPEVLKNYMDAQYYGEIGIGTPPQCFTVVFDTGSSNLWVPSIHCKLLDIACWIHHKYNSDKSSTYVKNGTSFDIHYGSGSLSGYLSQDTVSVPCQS
# Cathepsin D, sequence (P07339 169-412 limits assumed): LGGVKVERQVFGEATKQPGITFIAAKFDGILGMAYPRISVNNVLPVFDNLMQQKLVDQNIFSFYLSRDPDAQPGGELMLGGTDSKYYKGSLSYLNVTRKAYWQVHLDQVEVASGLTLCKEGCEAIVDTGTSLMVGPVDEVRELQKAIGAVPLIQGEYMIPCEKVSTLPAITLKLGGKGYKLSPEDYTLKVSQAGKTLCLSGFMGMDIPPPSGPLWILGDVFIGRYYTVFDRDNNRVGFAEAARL
compound,measurement,setting,value
"CSCC[C@H](NC(=O)OCn1nc(C)cc1C)C(=O)N[C@@H](CC(C)C)[C@@H](O)C[C@@H](C)C(=O)N[C@H](C(=O)NCc1ccccc1)C(C)C [(3,5-dimethyl-1H-pyrazol-1-yl)methyl N-[(1S)-1-{[(1R,3S,4S)-1-{[(1S)-1-(benzylcarbamoyl)-2-methylpropyl]carbamoyl}-3-hydroxy-1,6-dimethylheptan-4-yl]carbamoyl}-3-(methylsulfanyl)propyl]carbamate]",Ki,Cathepsin D,25 nM
same,Ki,Beta-secretase 1,14 nM
"Cc1nc(COC(=O)N[C@@H](CS(C)(=O)=O)C(=O)N[C@@H](CC(C)C)[C@@H](O)C[C@@H](C)C(=O)N[C@H](C(=O)NCC(C)C)C(C)C)c(C)o1 [N2-[(2R,4S,5S)-5-{[N-{[(2,5-dimethyl-1,3-oxazol-4-yl)methoxy]carbonyl}-3-(methylsulfonyl)-L-alanyl]amino}-4-hydroxy-2,7-dimethyloctanoyl]-N-(2-methylpropyl)-L-valinamide]",Ki,Cathepsin D,304 nM
same,Ki,Beta-secretase 1,0.12 nM
same,Ki,Beta-secretase 2,458 nM
"CSC[C@H](NC(=O)OCn1nc(C)cc1C)C(=O)N[C@@H](CC(C)C)[C@@H](O)C[C@@H](C)C(=O)N[C@H](C(=O)NCC(C)C)C(C)C [(3,5-dimethyl-1H-pyrazol-1-yl)methyl N-[(1R)-1-{[(1R,3S,4S)-3-hydroxy-1,6-dimethyl-1-{[(1S)-2-methyl-1-[(2-methylpropyl)carbamoyl]propyl]carbamoyl}heptan-4-yl]carbamoyl}-2-(methylsulfanyl)ethyl]carbamate]",Ki,Cathepsin D,15 nM
same,Ki,Beta-secretase 1,4.4 nM
same,Ki,Beta-secretase 2,161 nM
